How the values were obtained:
[1] = test system: DOI ((±)-2,5-dimethoxy-4-iodoamphetamine, a serotonin agonist) induced head twitches; settings: rat; oral doses of 3 and 10 mg/kg; cited from earlier work
[2] = test system: hyperactivity induced by the N-methyl-D-aspartate antagonist MK-801; settings: mice; oral doses of 3 and 10 mg/kg; cited from earlier work
[3] = Bulk density according to USP <616> method 1; format: physicochemical
Method: (§1) Carr's Index compares the difference between the bulk density and tapped density of a substance to determine its compressibility. The bulk density and the Carr's Index may be determined in accordance with USP<616> (method for performing Bulk and Tapped Densities, method 1) and USP<1174> (definition of powder flow) respectively.
(§2) Table 1 visualizes that filling of a capsule, in particular a capsule of size 3 or 4 (capsule volumes of 0.30 and 0.21 ml respectively, approximately 120 mg and 85 mg respectively at a bulk density of […]). As evident from Table 1, native pimavanserin (API) would be challenging for a size 3 capsule and not possible for a capsule of size 4 without improving the bulk density (as comparison 85 mg of pimavanserin granulation would require about 0.17 ml compared to 0.29 ml for the native API) and flowability (Carr index is frequently used in pharmaceutical manufacturing as an indication of the flowability of a powder, e.g. 2016 U.S. Pharmacopoeias-National Formulary [USP 35 NF 30]).
The bulk density of the blended composition is >0.4 g/ml, such as 0.4-0.6 g/ml, such as about 0.5 g/ml determined according to USP <616>, method 1. […]
The bulk density of pimavanserin granulation is >0.4 g/ml, such as 0.4-0.6 g/ml, such as about 0.5 g/ml, determined according to USP <616>, method 1. […]

[4] = Carr's Index (Carr's Compressibility Index), USP <616>/<1174>; format: physicochemical
Method: as §1, §2

[5] = Laser light scattering particle size distribution (Malvern Mastersizer 2000); format: physicochemical; settings: before vs after granulation, FIG. 4/5
From the text: The small quantity of water, its application using appropriate water atomization and/or water application rate are important reasons for the improved properties of pimavanserin. […] The actual amount of water to be sprayed at the granulation of pimavanserin may vary from batch to batch (depending on surrounding factors such as humidity, temperature, exact properties of the API batch, etc) but is still consider to be a small amount, e.g. 3-10% w/w based on the dry ingredients. The amount of water and the granulation process disclosed herein is controlled by controlling the impeller energy to achieve the targeted impeller speed. The appropriate impeller speed ensures sufficient mixing and controls the growth of granules. The specific small amount of water needed for each batch is controlled by the power consumption (amperage) of the granulator, i.e., if the amperage is […], additional amounts of water could be sprayed to the granulate in order to obtain pimavanserin having the properties desired in order to pharmaceutically manufacture capsules comprising 5-34 mg pimavanserin. […] The properties are achieved via a manufacturing process that includes granulation, using a suitable granulator, e.g. a high shear granulator, simultaneously spraying the adequate amount of water while mixing, followed by screening, and blending appropriate quantities of excipients. […]

[6] = FT4 Powder Rheology (FT4 Powder Rheometer, ASTM D7891-15); format: physicochemical; settings: FT4 measurement
From the text: In addition to the bulk density and Carr's Index obtained according to USP <616>, method 1, FT4 Powder Rheology was obtained for the API (pimavanserin tartrate) and for the compositions disclosed herein using a FT4 Powder Rheometer according to ASTM D7891-15; Standard Test Method for Shear Testing of Powders Using the Freeman Technology FT4 Powder Rheometer Shear Cell.
As discussed herein above the flowability of the composition has been improved compared to the API (pimavanserin tartrate), which for example can be supported by the Specific Energy (SE) obtained from the FT4 measurements. Specific Energy is a measure of the powder's flowability when unconfined, such as during low stress filling, or low shear blending. The average Specific Energy (SE) for the API is about 10.08+/−0.23 mJ/g.
The FT4 Powder Rheometer was also used as yet another means to compare the bulk density between the API, the granulated pimavanserin and the blended pimavanserin compositions disclosed herein and in the accompanying claims. The bulk density is a conditioned bulk density as obtained by the FT4 measurement, in accordance with ASTM D7891-15; Standard Test Method for Shear Testing of Powders Using the Freeman Technology FT4 Powder Rheometer Shear Cell.
The blended pimavanserin composition used in the herein mention FT4 Powder Rheometry measurements comprised 34 mg pimavanserin, 59 mg microcrystalline cellulose and 1 mg magnesium stearate.

volume required by 85 mg ([3]; 85 mg of material, from bulk density)	Bulk density according to USP <616> ([3]; USP <616> method 1)	Carr's Index [4]	particle size distribution D90 [5]	average Flow Rate Index (FRI) [6]	average Specific Energy (SE) [6]	average conditioned bulk density (CBD) ([6]; ASTM D7891-15)	Molecule	activity in DOI induced head twitches [1]	attenuation of MK-801 induced hyperactivity [2]
–	–	–	–	–	–	–	CC(C)COc1ccc(CNC(=O)N(Cc2ccc(F)cc2)C2CCN(C)CC2)cc1 [Pimavanserin, N-(1-methylpiperidin-4-yl)-N-(4-fluorophenylmethyl)-N′-(4-(2-methylpropyloxy)phenylmethyl)carbamide]	effective	effective
0.29 mL	0.294 g/mL	36	about 30 μm	1.90±0.01	about 10.08+/−0.23 mJ/g	0.336 ± 0.006 g/mL	pimavanserin tartrate [Native API]	–	–

Source: US11452721B2, “Formulations of pimavanserin” (ACADIA Pharmaceuticals Inc., priority 2017, dated 2022)
